Laboratory results published in ChEMBL document CHEMBL6087446, “Hypoxia Activated Nitric Oxide Donor Compounds for the Prevention and Treatment of Myocardial Hypoxia-Induced Injury” (J Med Chem, 2025).
The source made the active and inactive calls. No cut-off for these calls is given here.

Assays:
[1] = Toxicity in male C57 mouse assessed as adverse effect at 900 mg/kg, ip measured up to 14 days observation period; assay type: organism-based; conditions: in vivo, 336 h, time < 14 day
[2] = Toxicity in male C57 mouse assessed as physiological distress at 900 mg/kg, ip measured after 12 hrs of administration; assay type: organism-based; conditions: in vivo
[3] = test system: Mus musculus; test: Prevention of myocardial hypoxia injury in isoproterenol-induced male C57 mouse myocardial injury model assessed as pathological myocardial change by clear vascular boundaries at 8 to 16 mg/kg, ip once daily for 3 consecutive days by hematoxylin and eosin staining based analysis; assay type: functional, organism-based; conditions: dose 8-16 mg/kg, time 3.0 day
[4] = test system: H9c2; test: Prevention of hypoxia-induced ROS production in rat H9c2 cells at 1 uM measured after 4 hrs incubation by DCFH-DA method; assay type: functional, cell-based
[5] = test system: Mus musculus; test: Prevention of myocardial hypoxia injury in isoproterenol-induced male C57 mouse myocardial injury model assessed as decrease in ACE expression at 8 to 16 mg/kg, ip once daily for 3 consecutive days by immunohistochemistry; assay type: functional, organism-based; conditions: dose 8-16 mg/kg, time 3.0 day
[6] = test system: H9c2; test: Prevention of hypoxia-induced TSC2-P expression in rat H9c2 cells assessed as inhibition of TSC2-P overexpression at 10 uM measured after 4 hrs incubation; assay type: functional, cell-based
[7] = test system: H9c2; test: Prevention of hypoxia-induced decrease cell viability of rat H9c2 cells at 10 uM by CCK8 assay; assay type: functional, cell-based
[8] = test system: Mus musculus; test: Prevention of myocardial hypoxia injury in isoproterenol-induced male C57 mouse myocardial injury model assessed as decrease in heart weight ratio at 8 mg/kg, ip once daily for 3 consecutive days (reference value: 0.68%); assay type: functional; parameters: scale not given: the % may be the effect or the level left; conditions: time 3 day
[9] = test system: Mus musculus; test: Prevention of myocardial hypoxia injury in isoproterenol-induced male C57 mouse myocardial injury model assessed as reduction in cardiac troponin (CK) at 5 mg/kg, ip once daily for 3 consecutive days by immunohistochemistry; assay type: functional, organism-based; conditions: time 3.0 day
[10] = test system: Mus musculus; test: Prevention of myocardial hypoxia injury in isoproterenol-induced male C57 mouse myocardial injury model assessed as reduction in creatine kinase-MB (CK-MB) at 8 to 16 mg/kg, ip once daily for 3 consecutive days by immunohistochemistry; assay type: functional, organism-based; conditions: dose 8-16 mg/kg, time 3.0 day
[11] = AUC (0 to infinity) in female Balb/c at 8 mg/kg, ip mouse measured up to 24 hrs by LC-MS/MS analysis; assay type: ADME, organism-based; conditions: in vivo
[12] = Induction of NO release in rat H9c2 cells at 10 uM by Griess reagent assay relative to control; assay type: functional
[13] = test system: Mus musculus; test: Prevention of myocardial hypoxia injury in isoproterenol-induced male C57 mouse myocardial injury model assessed as decrease in mTORC1 expression at 8 to 16 mg/kg, ip once daily for 3 consecutive days by immunohistochemistry; assay type: functional, organism-based; conditions: dose 8-16 mg/kg, time 3.0 day
[14] = test system: Mus musculus; test: Prevention of myocardial hypoxia injury in isoproterenol-induced male C57 mouse myocardial injury model assessed as reduction in cardiac troponin (CK) at 8 to 16 mg/kg, ip once daily for 3 consecutive days by immunohistochemistry; assay type: functional, organism-based; conditions: dose 8-16 mg/kg, time 3.0 day
[15] = Toxicity in male C57 mouse assessed as mortality at 900 mg/kg, ip measured up to 14 days observation period; assay type: organism-based; conditions: in vivo, 336 h, time < 14 day
[16] = test system: H9c2; test: Prevention of hypoxia-induced ACE expression in rat H9c2 cells assessed as inhibition of ACE overexpression at 10 uM measured after 4 hrs incubation; assay type: functional, cell-based
[17] = test system: H9c2; test: Prevention of hypoxia-induced TSP1 expression in rat H9c2 cells assessed as inhibition of TSP1 overexpression at 10 uM measured after 4 hrs incubation; assay type: functional, cell-based
[18] = test system: Mus musculus; test: Prevention of myocardial hypoxia injury in isoproterenol-induced male C57 mouse myocardial injury model assessed as reduction in creatine kinase-MB (CK-MB) at 5 mg/kg, ip once daily for 3 consecutive days by immunohistochemistry; assay type: functional, organism-based; conditions: time 3.0 day
[19] = test system: Mus musculus; test: Prevention of myocardial hypoxia injury in isoproterenol-induced male C57 mouse myocardial injury model assessed as antihypertrophic effect at 8 mg/kg, ip once daily for 3 consecutive days; assay type: functional, organism-based; conditions: time 3.0 day
[20] = test system: Mus musculus; test: Prevention of myocardial hypoxia injury in isoproterenol-induced male C57 mouse myocardial injury model assessed as increase in NO level in heart tissue at 16 mg/kg, ip once daily for 3 consecutive days; assay type: functional, organism-based; conditions: time 3.0 day
[21] = test system: Mus musculus; test: Prevention of myocardial hypoxia injury in isoproterenol-induced male C57 mouse myocardial injury model assessed as reduction in creatine kinase (CK) at 8 to 16 mg/kg, ip once daily for 3 consecutive days by immunohistochemistry; assay type: functional, organism-based; conditions: dose 8-16 mg/kg, time 3.0 day
[22] = test system: Mus musculus; test: Prevention of myocardial hypoxia injury in isoproterenol-induced male C57 mouse myocardial injury model assessed as prevention of bundle collagen fiber deposition at 8 to 16 mg/kg, ip once daily for 3 consecutive days by Masson staining based analysis; assay type: functional, organism-based; conditions: dose 8-16 mg/kg, time 3.0 day
[23] = test system: H9c2; test: Induction of NO release in rat H9c2 cells under hypoxia condition by Griess reagent assay relative to control; assay type: functional, cell-based
[24] = test system: H9c2; test: Prevention of hypoxia-induced apoptosis in rat H9c2 cells assessed as decrease in early apoptosis by measuring reduced green fluorescence at 10 uM incubated for 4 hrs by confocal microscopy with Annexin V-FITC and propidium iodide (PI) double staining analysis; assay type: functional, cell-based
[25] = test system: Mus musculus; test: Prevention of myocardial hypoxia injury in isoproterenol-induced male C57 mouse myocardial injury model assessed as heart weight ratio at 16 mg/kg, ip once daily for 3 consecutive days (reference value: 0.60%); assay type: functional; conditions: time 3 day
[26] = Cmax in female Balb/c mouse at 8 mg/kg, ip measured up to 24 hrs by LC-MS/MS analysis; assay type: ADME, organism-based; conditions: in vivo
[27] = test system: Mus musculus; test: Prevention of myocardial hypoxia injury in isoproterenol-induced male C57 mouse myocardial injury model assessed as increase in NO level in myocardial tissue at 8 to 16 mg/kg, IG once daily for 3 consecutive days; assay type: functional, organism-based; conditions: dose 8-16 mg/kg, time 3.0 day
[28] = test system: Mus musculus; test: Prevention of myocardial hypoxia injury in isoproterenol-induced male C57 mouse myocardial injury model assessed as pathological myocardial change by measuring cellular arrangements at 8 to 16 mg/kg, IG once daily for 3 consecutive days by hematoxylin and eosin staining based analysis; assay type: functional, organism-based; conditions: dose 8-16 mg/kg, time 3.0 day
[29] = Toxicity in isoproterenol-induced male C57 mouse assessed as body weight change at 8 mg/kg, ip once daily for 3 consecutive days; assay type: organism-based; conditions: in vivo, 72 h, time 3 day
[30] = Toxicity in isoproterenol-induced male C57 mouse assessed as body weight change at 5 mg/kg, ip once daily for 3 consecutive days; assay type: organism-based; conditions: in vivo, 72 h, time 3 day
[31] = test system: Mus musculus; test: Prevention of myocardial hypoxia injury in isoproterenol-induced male C57 mouse myocardial injury model assessed as reduction in creatine kinase (CK) at 5 mg/kg, ip once daily for 3 consecutive days by immunohistochemistry; assay type: functional, organism-based; conditions: time 3.0 day
[32] = test system: H9c2; test: Prevention of hypoxia-induced mTORC1 expression in rat H9c2 cells assessed as inhibition of mTORC1 overexpression at 10 uM measured after 4 hrs incubation; assay type: functional, cell-based
[33] = test system: H9c2; test: Prevention of hypoxia-induced decrease in ATP level in rat H9c2 cells at 10 uM […] (Rvb =- 19.6 nmol/mg); assay type: ADME, cell-based; conditions: h9c2, 10 µM
[34] = test system: Mus musculus; test: Prevention of myocardial hypoxia injury in isoproterenol-induced male C57 mouse myocardial injury model assessed as increase in NO level in myocardial tissue at 8 to 16 mg/kg, ip once daily for 3 consecutive days; assay type: functional, organism-based; conditions: dose 8-16 mg/kg, time 3.0 day
[35] = test system: H9c2; test: Prevention of hypoxia-induced apoptosis in rat H9c2 cells assessed as decrease in late apoptosis and necrosis by measuring reduced red fluorescence at 10 uM incubated for 4 hrs by confocal microscopy with Annexin V-FITC and propidium iodide (PI) double staining analysis; assay type: functional, cell-based

CN(N=O)c1ccc(OCc2ccc([N+](=O)[O-])c(F)c2)cc1
Activity [1]: Non-toxic | Activity [2]: Non-toxic | Activity [3]: Active | Activity [4]: Active | Activity [5]: Active | Activity [6]: Active | Activity [7]: Active; Partially Restores Cell Viability | Activity [8]: 0.53% | Activity [9]: Active | Activity [10]: Active | AUC [11]: 640 ng·h/mL | Activity [12]: <5% | Activity [13]: Active | Activity [14]: Active | Activity [15]: Non-toxic | Activity [16]: Active | Activity [17]: Active | Activity [18]: Active | Activity [19]: Active | Activity [20]: Active | Activity [21]: Active | Activity [22]: Active | Activity [23]: Dose-dependent-effect | Activity [24]: Active; Green Fluorescence Intensity Wes Lower Than Ismn Treated Cells | Activity [25]: 0.51% | Cmax [26]: 450 ng/mL | Activity [27]: Active | Activity [28]: Active | Activity [29]: Non-toxic | Activity [30]: Non-toxic | Activity [31]: Active | Activity [32]: Active | Activity [33]: 37.9 nmol/mg | Activity [34]: Active | Activity [35]: Active; Reduced Red Fluorescence To Certain Extents
